The target of assay [1] is T1, CD1b (CD1b-β2m) (Homo sapiens, UniProt P29016).
T1 construct: soluble, transmembrane-truncated CD1b with β2m; from HEK 293S GnTI- or Trichoplusia ni High Five cells; lipid-loaded and purified; with Beta-2-microglobulin
The assay can be described thus: lipid loading, isoelectric focusing shift and anion exchange purification. The settings on record: loaded in vitro. The assay is classed as binding.

For assay [2], the target named is T1, CD1b (CD1b-β2m). The assay can be described thus: X-ray crystal structure. The settings on record: antigen-binding cleft, with scaffold lipids; weak density for head group.

The record followed here is paper PMC6649662, “A molecular basis of human T cell receptor autoreactivity toward self-phospholipids” (Science immunology, 2017).

For the compound `CCCCCCCC/C=C\CCCCCCCC(=O)O[C@H](COC(=O)CCCCCCCCCCCCCCC)COP(=O)(O)OCCN` [PE, phosphatidylethanolamine], the “lipid loading, isoelectric focusing shift and anion exchange purification” value at CD1b (CD1b-β2m) [1] was “phospholipids are loaded into CD1b at high occupancy and purified to homogeneity”. `CCCCCCCC/C=C\CCCCCCCC(=O)O[C@H](COC(=O)CCCCCCCCCCCCCCC)COP(=O)(O)OC[C@H](N)C(=O)O` [PS, phosphatidylserine]: at CD1b (CD1b-β2m) [2], the X-ray crystal structure entry is “structures of the PG90 TCR and the CD1b-PS and CD1b- PA complexes”. Regarding `CCCCCCCC/C=C\CCCCCCCC(=O)O[C@H](COC(=O)CCCCCCCCCCCCCCC)COP(=O)(O)O[C@@H]1[C@H](O)[C@H](O)[C@@H](O)[C@H](O)[C@H]1O` [PI, phosphatidylinositol], the “lipid loading, isoelectric focusing shift and anion exchange purification” value at CD1b (CD1b-β2m) [1] is “phospholipids are loaded into CD1b at high occupancy and purified to homogeneity”. On to `CCCCCCCC/C=C\CCCCCCCC(=O)O[C@H](COC(=O)CCCCCCCCCCCCCCC)COP(=O)(O)O` [PA, phosphatidic acid], for which, on CD1b (CD1b-β2m) [2], the X-ray crystal structure result was “structures of the PG90 TCR and the CD1b-PS and CD1b- PA complexes”.
